Paper PMC7413254 (Nature Communications, 2020)

Key:
Format in all cases: cell-based
PfNT1 = biological target: T1, PfNT1 (Plasmodium falciparum, UniProt Q8IDM6); test: cell-based; details: trans-stimulation, solute 45 mM injected (estimated intracellular)
T1 construct: expressed in transfected cells; host or cells: Xenopus laevis oocytes (stage V-VI), cRNA-injected
In short: (§1)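 Transport measured in Xenopus oocytes expressing the transporters, 1.5 h at 27.5 °C in ND96 pH 5.5 unless noted. For trans-stimulation, VF-6 injected in 25 nL ND96 at pH 5.0–7.0 or Na^+-free (choline) buffer; intracellular levels based on ~400 nL oocyte volume. Ten oocytes per treatment, ≥4 experiments.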

PfCRT^3D7 = PfCRT^3D7 (Plasmodium falciparum, UniProt Q8IBZ9); test: cell-based; details: for [3H]CQ transport, PfCRT3D7 (% PfCRT3D7 control): trans-stimulation, solute 45 mM injected (estimated intracellular); for PfCRT-mediated [3H]CQ transport, trans-stimulation (% PfCRT3D7 control): PfCRT3D7 oocytes, normalised to oocyte type control
In short: as §1

PfCRT^Dd2 [1] = biological target: T2, PfCRT^Dd2 (Plasmodium falciparum, UniProt Q9N623, A220S/I356T/K76T/M74I/N326S/N75E/Q271E/R371I); test: cell-based; details: for PfCRT-mediated [3H]CQ transport, trans-stimulation (% PfCRTDd2 control): PfCRTDd2 oocytes, normalised to oocyte type control; for [3H]CQ transport (% PfCRTDd2 control), trans-stimulation, PfCRTDd2: PfCRT-mediated component (background subtracted), mean ± SEM, SEM
In short: as §1

PfCRT^Ecu1110 [2] = biological target: T3, PfCRT^Ecu1110 (Plasmodium falciparum, UniProt Q9N623, A220S/I356L/K76T/N326D); test: cell-based; details: for PfCRT-mediated [3H]CQ transport, trans-stimulation (% PfCRTEcu1110 control): PfCRTEcu1110 oocytes, normalised to oocyte type control; for [3H]CQ transport (% PfCRTDd2 control), trans-stimulation, PfCRTEcu1110: PfCRT-mediated component (background subtracted), sheet title says normalised to PfCRTDd2 control, mean ± SEM, SEM
In short: as §1

PfCRT^Dd2 [3] = biological target: T2, PfCRT^Dd2; test: [3H]CQ uptake into Xenopus oocytes, cis-inhibition by unlabelled solute; details: PfCRTDd2 oocytes, background [3H]CQ accumulation subtracted, normalised to oocyte type control
In short: (§2)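 PfCRT-expressing and control oocytes: ND96 pH 5.5 → 1.5 h at 27.5 °C → ice-cold ND96 wash → 10% SDS lysis → scintillation count.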

PfCRT^Ecu1110 [4] = biological target: T3, PfCRT^Ecu1110; test: as above; details: for PfCRT-mediated [3H]CQ transport, cis-inhibition (% PfCRTEcu1110 control): PfCRTEcu1110 oocytes, background [3H]CQ accumulation subtracted, normalised to oocyte type control; for [3H]CQ transport (% PfCRTEcu1110 control), cis-inhibition, PfCRTEcu1110: PfCRT-mediated component (background subtracted), sheet title says normalised to PfCRTDd2 control, mean ± SEM, SEM
In short: as §2

[5] = [test solute]i = 5 mM (intracellular)
[6] = [test solute]i = 45 mM (intracellular; 30 mM for some solutes due to solubility)
[7] = [test solute]i = 5 mM (injected)
[8] = [test solute]i = 45 mM (30 mM for some solutes due to solubility)

Sequence of PfCRT^3D7 (Q8IBZ9 59-398): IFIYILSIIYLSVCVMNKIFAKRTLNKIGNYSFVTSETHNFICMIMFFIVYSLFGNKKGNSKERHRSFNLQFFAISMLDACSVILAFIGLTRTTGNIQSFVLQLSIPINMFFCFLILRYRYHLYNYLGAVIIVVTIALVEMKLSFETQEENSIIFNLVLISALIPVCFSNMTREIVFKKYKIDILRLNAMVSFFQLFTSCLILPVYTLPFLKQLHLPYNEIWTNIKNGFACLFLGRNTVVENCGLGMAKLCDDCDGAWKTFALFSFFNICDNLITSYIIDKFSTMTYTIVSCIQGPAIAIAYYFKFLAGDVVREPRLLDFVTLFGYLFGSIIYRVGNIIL
T1 sequence (Q8IDM6 whole entry): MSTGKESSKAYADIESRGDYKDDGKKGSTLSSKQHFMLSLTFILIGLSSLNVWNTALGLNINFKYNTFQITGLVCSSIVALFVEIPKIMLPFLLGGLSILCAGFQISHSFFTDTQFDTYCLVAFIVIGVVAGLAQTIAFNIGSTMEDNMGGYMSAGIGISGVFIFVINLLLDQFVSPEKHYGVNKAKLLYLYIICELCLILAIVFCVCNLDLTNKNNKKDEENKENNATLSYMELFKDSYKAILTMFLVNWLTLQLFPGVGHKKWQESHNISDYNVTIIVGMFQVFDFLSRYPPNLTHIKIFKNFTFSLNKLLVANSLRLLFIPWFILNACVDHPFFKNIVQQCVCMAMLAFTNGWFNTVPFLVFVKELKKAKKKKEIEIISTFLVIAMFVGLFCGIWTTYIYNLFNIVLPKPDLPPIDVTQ
T2 sequence (Q9N623 whole entry A220S/I356T/K76T/M74I/N326S/N75E/Q271E/R371I): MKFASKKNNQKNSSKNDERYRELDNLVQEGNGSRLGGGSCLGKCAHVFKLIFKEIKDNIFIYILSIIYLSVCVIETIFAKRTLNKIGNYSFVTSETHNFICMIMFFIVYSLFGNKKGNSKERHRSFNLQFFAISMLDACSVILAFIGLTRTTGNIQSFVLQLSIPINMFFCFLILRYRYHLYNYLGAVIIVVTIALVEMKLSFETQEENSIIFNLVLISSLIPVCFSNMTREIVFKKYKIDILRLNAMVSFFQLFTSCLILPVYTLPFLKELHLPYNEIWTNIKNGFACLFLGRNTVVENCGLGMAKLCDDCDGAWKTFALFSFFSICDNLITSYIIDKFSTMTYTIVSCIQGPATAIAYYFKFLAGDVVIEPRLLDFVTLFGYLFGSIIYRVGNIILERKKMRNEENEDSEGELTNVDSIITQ
T3 sequence (Q9N623 whole entry A220S/I356L/K76T/N326D): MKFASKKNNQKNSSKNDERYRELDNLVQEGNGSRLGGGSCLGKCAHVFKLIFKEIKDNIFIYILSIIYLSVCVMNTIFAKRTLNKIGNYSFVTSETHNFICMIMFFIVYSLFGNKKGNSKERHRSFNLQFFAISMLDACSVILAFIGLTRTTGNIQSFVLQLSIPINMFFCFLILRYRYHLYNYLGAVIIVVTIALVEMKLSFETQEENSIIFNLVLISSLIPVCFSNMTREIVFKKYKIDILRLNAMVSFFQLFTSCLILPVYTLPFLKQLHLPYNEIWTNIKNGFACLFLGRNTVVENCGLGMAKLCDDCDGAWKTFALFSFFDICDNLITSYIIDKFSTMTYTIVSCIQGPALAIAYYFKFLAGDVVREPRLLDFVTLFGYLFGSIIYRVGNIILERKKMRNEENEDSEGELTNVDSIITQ

Row | Substance | [3H]CQ transport, PfNT1 (% PfCRTDd2 control) (PfNT1; Experiment 1) | [3H]CQ transport, PfNT1 (% PfCRTDd2 control) (PfNT1; Experiment 2) | [3H]CQ transport, PfNT1 (% PfCRTDd2 control) (PfNT1; Experiment 3) | [3H]CQ transport, PfNT1 (% PfCRTDd2 control) (PfNT1; Experiment 4) | [3H]CQ transport, PfCRT3D7 (% PfCRT3D7 control) (PfCRT^3D7; Experiment 1) | [3H]CQ transport, PfCRT3D7 (% PfCRT3D7 control) (PfCRT^3D7; Experiment 2) | [3H]CQ transport, PfCRT3D7 (% PfCRT3D7 control) (PfCRT^3D7; Experiment 3) | [3H]CQ transport, PfCRT3D7 (% PfCRT3D7 control) (PfCRT^3D7; Experiment 4) | PfCRT-mediated [3H]CQ transport, trans-stimulation (% PfCRTDd2 control) (PfCRT^Dd2 [1]; [5]) | PfCRT-mediated [3H]CQ transport, trans-stimulation (% PfCRTDd2 control) (PfCRT^Dd2 [1]; [6]) | PfCRT-mediated [3H]CQ transport, trans-stimulation (% PfCRTEcu1110 control) (PfCRT^Ecu1110 [2]; [5]) | PfCRT-mediated [3H]CQ transport, trans-stimulation (% PfCRTEcu1110 control) (PfCRT^Ecu1110 [2]; [6]) | PfCRT-mediated [3H]CQ transport, trans-stimulation (% PfCRT3D7 control) (PfCRT^3D7; [5]) | PfCRT-mediated [3H]CQ transport, trans-stimulation (% PfCRT3D7 control) (PfCRT^3D7; [6]) | PfCRT-mediated [3H]CQ transport, cis-inhibition (% PfCRTDd2 control) (PfCRT^Dd2 [3]; [test solute] = 0.5 mM) | PfCRT-mediated [3H]CQ transport, cis-inhibition (% PfCRTDd2 control) (PfCRT^Dd2 [3]; [test solute] = 1 mM) | PfCRT-mediated [3H]CQ transport, cis-inhibition (% PfCRTDd2 control) (PfCRT^Dd2 [3]; [test solute] = 2 mM) | PfCRT-mediated [3H]CQ transport, cis-inhibition (% PfCRTEcu1110 control) (PfCRT^Ecu1110 [4]; [test solute] = 0.5 mM) | PfCRT-mediated [3H]CQ transport, cis-inhibition (% PfCRTEcu1110 control) (PfCRT^Ecu1110 [4]; [test solute] = 1 mM) | PfCRT-mediated [3H]CQ transport, cis-inhibition (% PfCRTEcu1110 control) (PfCRT^Ecu1110 [4]; [test solute] = 2 mM) | further results
1 | AHAGEYGAEALE [AE-12] | 2.23 | 2.37 | 2.71 | 2.43 | 100.93 | 94.28 | 100.75 | 102.32 | – | – | – | – | – | – | – | – | – | – | – | – | –
2 | DLHAHKLR [DR-8] | 3.43 | 3.47 | 3.21 | 3.51 | 184.56 | 199.32 | 173.32 | 194.32 | 100 ± 2.9 | 110 ± 3.7 | 130 ± 3.3 | 139 ± 3.7 | 130 ± 5.2 | 181 ± 5.2 | 47 ± 3.9 | 31 ± 2.1 | 12 ± 0.9 | 58 ± 1.2 | 42 ± 2.6 | 28 ± 2.4 | –
3 | VVYPWTQR [VR-8] | – | – | – | – | – | – | – | – | 96 ± 1.4 | 95 ± 1.5 | 97 ± 1.8 | 98 ± 3.7 | 96 ± 2.8 | 98 ± 2.9 | 40 ± 3.2 | 22 ± 1.1 | 11 ± 0.8 | 42 ± 2.6 | 32 ± 1.9 | 21 ± 1.4 | –
4 | YIGSR [YR-5] | – | – | – | – | – | – | – | – | 94 ± 4.6 | 96 ± 4.1 | 98 ± 4.2 | 96 ± 3.5 | 98 ± 2.6 | 94 ± 2.1 | 73 ± 3.9 | 58 ± 3.1 | 61 ± 2.9 | 71 ± 1.6 | 55 ± 1.4 | 49 ± 2.4 | [3H]CQ transport (% PfCRTDd2 control), trans-stimulation, PfCRTDd2 (PfCRT^Dd2 [1]; [7]): 94 ± 4.6 % PfCRTDd2 control; [3H]CQ transport (% PfCRTDd2 control), trans-stimulation, PfCRTDd2 (PfCRT^Dd2 [1]; [8]): 96 ± 4.1 % PfCRTDd2 control; [3H]CQ transport (% PfCRTDd2 control), trans-stimulation, PfCRTEcu1110 (PfCRT^Ecu1110 [2]; [7]): 30 ± 1.7 % PfCRTEcu1110 control; [3H]CQ transport (% PfCRTDd2 control), trans-stimulation, PfCRTEcu1110 (PfCRT^Ecu1110 [2]; [8]): 29 ± 1.3 % PfCRTEcu1110 control; [3H]CQ transport (% PfCRTEcu1110 control), cis-inhibition, PfCRTEcu1110 (PfCRT^Ecu1110 [4]; [test solute] = 0.5 mM): 22 ± 0.1 % PfCRTEcu1110 control; [3H]CQ transport (% PfCRTEcu1110 control), cis-inhibition, PfCRTEcu1110 (PfCRT^Ecu1110 [4]; [test solute] = 1 mM): 17 ± 0.4 % PfCRTEcu1110 control; [3H]CQ transport (% PfCRTEcu1110 control), cis-inhibition, PfCRTEcu1110 (PfCRT^Ecu1110 [4]; [test solute] = 2 mM): 15 ± 0.1 % PfCRTEcu1110 control
5 | YPWTQ [YQ-5] | – | – | – | – | – | – | – | – | 97 ± 4.6 | 96 ± 2.7 | 99 ± 3.5 | 98 ± 2.2 | 96 ± 3.5 | 97 ± 3.7 | 67 ± 2.2 | 51 ± 3.2 | 27 ± 1.1 | 72 ± 6.9 | 61 ± 1.4 | 49 ± 2.5 | [3H]CQ transport (% PfCRTDd2 control), trans-stimulation, PfCRTDd2 (PfCRT^Dd2 [1]; [7]): 97 ± 4.6 % PfCRTDd2 control; [3H]CQ transport (% PfCRTDd2 control), trans-stimulation, PfCRTDd2 (PfCRT^Dd2 [1]; [8]): 96 ± 2.7 % PfCRTDd2 control; [3H]CQ transport (% PfCRTDd2 control), trans-stimulation, PfCRTEcu1110 (PfCRT^Ecu1110 [2]; [7]): 30 ± 1.0 % PfCRTEcu1110 control; [3H]CQ transport (% PfCRTDd2 control), trans-stimulation, PfCRTEcu1110 (PfCRT^Ecu1110 [2]; [8]): 30 ± 1.3 % PfCRTEcu1110 control; [3H]CQ transport (% PfCRTEcu1110 control), cis-inhibition, PfCRTEcu1110 (PfCRT^Ecu1110 [4]; [test solute] = 0.5 mM): 23 ± 0.4 % PfCRTEcu1110 control; [3H]CQ transport (% PfCRTEcu1110 control), cis-inhibition, PfCRTEcu1110 (PfCRT^Ecu1110 [4]; [test solute] = 1 mM): 19 ± 0.3 % PfCRTEcu1110 control; [3H]CQ transport (% PfCRTEcu1110 control), cis-inhibition, PfCRTEcu1110 (PfCRT^Ecu1110 [4]; [test solute] = 2 mM): 15 ± 0.5 % PfCRTEcu1110 control
